# From ChEMBL document CHEMBL1141707, “Modification of the side chain of micromolide, an anti-tuberculosis natural product” (2008)
# Tested on: Mycobacterium tuberculosis
# Assay: Antitubercular activity against Mycobacterium tuberculosis H37Rv by low oxygen recovery assay
# Type: functional
# Conditions: not given
row,Structure (SMILES),MIC
1,CCCCCCCCCCCCCCC1CCC(=O)O1 (configuration not stated),> 128 µM
2,CCCCCCCC/C=C\CCCCC1CCC(=O)O1 (racemic),124 µM

# Tested on: Mycobacterium tuberculosis
# Assay: Antitubercular activity against Mycobacterium tuberculosis H37Rv after 4 days by microplate alamar blue assay
# Type: functional
# Conditions: 96 h
row,Structure (SMILES),MIC
1,O=C1CCC(CCCCC2CC(C(=O)NCc3ccccc3)=NO2)O1 (configuration not stated),> 128 µM
2,CCCCCCCCNC(=O)CCCCC1CCC(=O)O1 (configuration not stated),> 128 µM
3,CCCCCCC/C=C\CCCCC1CCC(=O)O1 (configuration not stated),14.7 µM
4,CCCCCCCCC#CCCCCC1CCC(=O)O1 (configuration not stated),44 µM
5,CCCCCCCC/C=C\CCCC[C@@H]1CCC(=O)O1,1.5 µg/mL
6,CCCCCCCCCCCCCCC1CCC(=O)O1 (configuration not stated),> 128 µM
7,CCCCCCOC(=O)C1=NOC(CCCCC2CCC(=O)O2)C1 (configuration not stated),63.1 µM
8,CCCCCCCC(=O)NCCCCC1CCC(=O)O1 (configuration not stated),> 128 µM
9,CCCCCCCC/C=C/CCCCC1CCC(=O)O1 (configuration not stated),19.7 µM
10,CCCCCCCc1cc(CCCCC2CCC(=O)O2)on1 (configuration not stated),63.4 µM
11,CCOC(=O)c1cc(CCCCC2CCC(=O)O2)on1 (configuration not stated),> 128 µM
12,CCN(CC)C(=O)C1=NOC(CCCCC2CCC(=O)O2)C1 (configuration not stated),> 128 µM
13,CC(C)(C)OC(=O)C1=NOC(CCCCC2CCC(=O)O2)C1 (configuration not stated),> 128 µM
14,CCCCCCC1=NOC(CCCCC2CCC(=O)O2)C1 (configuration not stated),> 128 µM
15,CCCCCCCC1=NOC(CCCCC2CCC(=O)O2)C1 (configuration not stated),> 128 µM
16,CCCCCCC1=NOC(CCCC2CCC(=O)O2)C1 (configuration not stated),> 128 µM
17,CCCCCCCC1=NOC(CCCC2CCC(=O)O2)C1 (configuration not stated),> 128 µM
18,O=C1CCC(CCCCC2CC(C(=O)O)=NO2)O1 (configuration not stated),> 128 µM
19,CCOC(=O)C1=NOC(CCCCC2CCC(=O)O2)C1 (configuration not stated),> 128 µM
20,CCCCCCCCC(=O)NCCCCC1CCC(=O)O1 (configuration not stated),> 128 µM
21,CCCCCCNC(=O)C1=NOC(CCCCC2CCC(=O)O2)C1 (configuration not stated),> 128 µM
22,CCCCCCCC#CCCCCC1CCC(=O)O1 (configuration not stated),70.2 µM
23,CCCCCCNC(=O)c1cc(CCCCC2CCC(=O)O2)on1 (configuration not stated),> 128 µM
24,O=C1CCC(CCCCC2CC(C(=O)OCc3ccccc3)=NO2)O1 (configuration not stated),> 128 µM
25,CCCCCCCC/C=C\CCCCC1CCC(=O)O1 (racemic),6.9 µM
